Source: PMC7872956, “Fucosidases from the human gut symbiont Ruminococcus gnavus” (Cellular and Molecular Life Sciences: CMLS, 2020)

Key:
GH29 fucosidase E1_10125 [1] = target: T1, GH29 fucosidase E1_10125 (Mediterraneibacter gnavus, UniProt A0A6N3BKT0, D236A); assay: STD NMR binding epitope mapping
T1 construct: gene hypBA2
T1 sequence (A0A6N3BKT0 35-583 D236A): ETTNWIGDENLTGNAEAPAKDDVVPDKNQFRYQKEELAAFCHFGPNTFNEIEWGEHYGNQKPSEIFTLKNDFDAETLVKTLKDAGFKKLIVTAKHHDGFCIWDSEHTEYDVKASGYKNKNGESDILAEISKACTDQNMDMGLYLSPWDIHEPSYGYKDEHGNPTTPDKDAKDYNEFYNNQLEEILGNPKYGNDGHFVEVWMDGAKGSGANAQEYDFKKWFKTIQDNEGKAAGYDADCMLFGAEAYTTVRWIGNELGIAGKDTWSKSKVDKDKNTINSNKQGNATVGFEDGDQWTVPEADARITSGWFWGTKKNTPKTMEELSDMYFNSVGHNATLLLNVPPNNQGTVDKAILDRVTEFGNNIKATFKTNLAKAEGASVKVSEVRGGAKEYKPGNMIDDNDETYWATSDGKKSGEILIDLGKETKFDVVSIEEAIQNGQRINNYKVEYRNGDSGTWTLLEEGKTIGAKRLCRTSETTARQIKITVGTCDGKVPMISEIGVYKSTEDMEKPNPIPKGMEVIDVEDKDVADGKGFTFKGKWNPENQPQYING

GH29 fucosidase E1_10125 [2] = target: T1, GH29 fucosidase E1_10125; assay: X-ray crystal structure ([…] Å) and ITC; assay type: binding
GH29 fucosidase E1_10125 [3] = target: T2, GH29 fucosidase E1_10125 (Mediterraneibacter gnavus, UniProt A0A6N3BKT0, D236A); assay: ITC; also STD NMR; assay type: binding
T2 construct: gene hypBA2

SMILES: C[C@@H]1O[C@@H](O[C@H]2[C@H](O[C@@H]3O[C@H](CO)[C@H](O)[C@H](O)[C@H]3O)[C@@H](CO)OC(O)[C@@H]2O)[C@@H](O)[C@H](O)[C@@H]1O (stereo partly drawn) [3FL]
- STD NMR binding epitope mapping (GH29 fucosidase E1_10125 [1]): The enzyme intimately recognized the three sugar residues constituting 3FL and LeA

SMILES: C[C@@H]1OC(O)[C@@H](O)[C@H](O)[C@@H]1O (stereo partly drawn) [Fuc, L-fucose]
- Kd (GH29 fucosidase E1_10125 [2]): 21.7 µM

SMILES: CC(=O)N[C@H]1C(O)O[C@H](CO)[C@@H](O[C@@H]2O[C@@H](C)[C@@H](O)[C@@H](O)[C@@H]2O)[C@@H]1O[C@@H]1O[C@H](CO)[C@H](O)[C@H](O)[C@H]1O (stereo partly drawn) [LeA, Lewis A]
- STD NMR binding epitope mapping (GH29 fucosidase E1_10125 [1]): The enzyme intimately recognized the three sugar residues constituting 3FL and LeA

SMILES: CC(=O)N[C@H]1C(O)O[C@H](CO)[C@@H](O[C@@H]2O[C@H](CO)[C@H](O)[C@H](O)[C@H]2O)[C@@H]1O[C@@H]1O[C@@H](C)[C@@H](O)[C@@H](O)[C@@H]1O (stereo partly drawn) [LeX, Lewis X]
- Kd (GH29 fucosidase E1_10125 [3]): 51.4 ± 1.93 µM

SMILES: CC(=O)N[C@H]1[C@H]([C@H](O)[C@H](O)CO)O[C@@](O[C@H]2[C@@H](O)[C@@H](CO)O[C@@H](O[C@H]3[C@H](O[C@@H]4O[C@@H](C)[C@@H](O)[C@@H](O)[C@@H]4O)[C@@H](NC(C)=O)C(O)O[C@@H]3CO)[C@@H]2O)(C(=O)O)C[C@@H]1O (stereo partly drawn) [sLeX, 3′-Sialyl Lewis X]
- Kd (GH29 fucosidase E1_10125 [3]): 3.59 ± 0.48 µM

SMILES: CC(=O)N[C@H]1C(O)O[C@H](CO)[C@@H](O[C@@H]2O[C@H](CO)[C@H](O)[C@H](O[C@H]3O[C@H](CO)[C@H](O)[C@H](O)[C@H]3O)[C@H]2O)[C@@H]1O[C@@H]1O[C@@H](C)[C@@H](O)[C@@H](O)[C@@H]1O (stereo partly drawn) [αGal-LeX, α1–3Gal-Lewis X]
- Kd (GH29 fucosidase E1_10125 [3]): 47.1 ± 5.6 µM
